{"source": "patent US6716829B2", "about": "“Aldosterone antagonist and cyclooxygenase-2 inhibitor combination therapy to prevent or treat inflammation-related cardiovascular disorders” (Pharmacia Corporation, priority 2000, dated 2004)", "test_system": "aldosterone + salt treated uninephrectomized rats", "assay": "Assay C, further aldosterone infusion study: radiotelemetrized arterial (systolic) blood pressure", "format": "in vivo, Male Sprague-Dawley rats", "settings": "for Systolic Blood Pressure (mmHg): mean ± SEM of values every 5 min over 24-hour period", "experimental": "Assay C: Further In Vivo Aldosterone Infusion Study\nThe procedure of Assay B was expanded upon in a further study. […] Myocardial tissue from animals in each treatment group was examined after 7, 14, or 30 days of treatment.\nMale Sprague-Dawley rats, weighing 230 to 250 g, (Harlan Sprague-Dawley Industries, Indianapolis, IN) were housed in a room 12-hours light/12-hours dark daily cycle at an ambient temperature of 22±1° C. (n=96). Animals were allowed one week to adjust after arrival and had free access to TEKLAD 22/5 rodent diet (Harlan TEKLAD, Madison, Wis.) and tap water until the initiation of the experiment.\nPotassium chloride supplementation was added to the saline solution in order to prevent the potential hypokalemia associated with aldosterone excess.\nAt the time of the surgery, an Alzet 2002 osmotic minipump (Alza Corp., Palo Alto, Calif.) containing either vehicle (9% ethanol/87% propylene glycol/4% dH2O) or 1.0 mg/mL d-aldosterone (Sigma Chemical, St. Louis, Mo.) was inserted subcutaneously at the nape of the neck. Aldosterone was administered at a dose of 0.75 µg/hour. […] Animals were sacrificed from each group (n=8-13) after 7, 14, or 30 days of treatment.\nAnimals to be sacrificed after 7 or 14 days of treatment were uninephrectomized and implanted with an Alzet minipump. Animals treated for 30 days were uninephrectomized, fitted for Alzet minipumps, and implanted with radio telemetry units (model #TA11PA-C40, Data Sciences Inc., St. Paul, Minn.) according to the following procedure. Animals were anesthetized with 5% isoflurane (SOLVAY Animal Health Inc., Mendota Heights, Minn.), which was delivered in O2 using a VMS anesthesia instrument (Matrix Medical, Inc., Orchard Park, N.Y.). Anesthesia was maintained with 1-2% isoflurane throughout the surgical procedure. The surgery site was clipped, scrubbed with nolvasan, and sprayed with betadine. A rostral-caudal incision was made through the skin from the base of the rib cage to the pubic region using a #11 scalpel blade. A second incision was made through the muscles of the abdominal wall to expose the peritoneal cavity. The […], renal artery and vein of the left kidney were isolated, tied off with 4-0 silk, and the kidney excised and discarded. Organs were carefully displaced with tissue retractors in order to expose the abdominal aorta. A 1.5 cm segment just rostral to the bifurcation of the abdominal aorta into the iliac arteries was cleared of excessive connective tissue and 4-0 silk was used to make an anchor adjacent to the aorta. A microvascular clip was then placed at both ends of the cleaned region to stop excessive blood flow. Using a bent, 21 gauge needle, the abdominal aorta was penetrated. The cannula of the radio telemetry unit was inserted and stabilized in the aorta using the 4-0 silk anchor. Organs were repositioned and the telemetry unit was placed over the organs. Using a non-interrupted suture pattern with 4-0 silk, the abdominal wall was closed, and the skin was subsequently closed using a 4-0 silk in an interrupted suture pattern. Animals were injected around the sutures with 100 μL of the anesthetic Marcaine HCl (Sanofi Winthrop Pharmaceuticals, New York, N.Y.) and given an injection (i.m.) of the antibiotic Mandol (Eli Lilly & Co., Indianapolis, Ind.). Post-operative care included monitoring the animals on a heating pad during recovery from anesthesia until sternal recumbency was reestablished. Animals were monitored daily for signs of distress and infection at the surgical site. Animals displaying continued discomfort after surgery were treated with 0.1-0.5 mg/kg, s.c. Buphrenorphine (Rickett & Colman Pharmaceuticals, Inc. Richmond, Va.). Animals were then placed on tap water and TEKLAD 22/5 rodent diet (Harlan TEKLAD, Madison, Wis.).\nRadiotelemetrized arterial blood pressure was calculated with the […]", "note": "“And” between values parts separate entries of the source, which are not always exact repeats. Identical values can stand only once.", "data": [{"smiles": "COC(=O)[C@@H]1CC2=CC(=O)CC[C@]2(C)[C@@]23O[C@@H]2C[C@@]2(C)[C@@H](CC[C@@]24CCC(=O)O4)[C@H]13", "note": "[Eplerenone]", "values": [{"measurement": "Systolic Blood Pressure", "setting": "Day 3, individual rats, 30-day protocol, listed as Eplerenone + aldosterone + salt", "result": "123 mmHg and 126 mmHg (2×) and 130 mmHg (2×) and 128 mmHg and 119 mmHg and 125 mmHg (2×)"}, {"measurement": "Systolic Blood Pressure (mmHg)", "setting": "Day 3", "result": "126 ± 1", "unit": "mmHg"}, {"measurement": "Systolic Blood Pressure", "setting": "Day 4, individual rats, 30-day protocol, listed as Eplerenone + aldosterone + salt", "result": "130 mmHg (2×) and 128 mmHg (2×) and 131 mmHg and 139 mmHg and 122 mmHg and 126 mmHg and 134 mmHg"}, {"measurement": "Systolic Blood Pressure (mmHg)", "setting": "Day 4", "result": "130 ± 2", "unit": "mmHg"}, {"measurement": "Systolic Blood Pressure", "setting": "Day 5, individual rats, 30-day protocol, listed as Eplerenone + aldosterone + salt", "result": "132 mmHg (2×) and 134 mmHg and 143 mmHg and 123 mmHg and 127 mmHg (2×) and 133 mmHg and 142 mmHg"}, {"measurement": "Systolic Blood Pressure (mmHg)", "setting": "Day 5", "result": "132 ± 2", "unit": "mmHg"}, {"measurement": "Systolic Blood Pressure", "setting": "Day 6, individual rats, 30-day protocol, listed as Eplerenone + aldosterone + salt", "result": "133 mmHg (2×) and 142 mmHg and 136 mmHg and 152 mmHg and 126 mmHg and 137 mmHg and 140 mmHg and 150 mmHg"}, {"measurement": "Systolic Blood Pressure (mmHg)", "setting": "Day 6", "result": "139 ± 3", "unit": "mmHg"}, {"measurement": "Systolic Blood Pressure", "setting": "Day 7, individual rats, 30-day protocol, listed as Eplerenone + aldosterone + salt", "result": "140 mmHg (3×) and 142 mmHg and 143 mmHg and 156 mmHg (2×) and 132 mmHg and 141 mmHg"}, {"measurement": "Systolic Blood Pressure (mmHg)", "setting": "Day 7", "result": "143 ± 3", "unit": "mmHg"}, {"measurement": "Systolic Blood Pressure", "setting": "Day 8, individual rats, 30-day protocol, listed as Eplerenone + aldosterone + salt", "result": "142 mmHg and 146 mmHg and 141 mmHg and 156 mmHg and 131 mmHg and 138 mmHg (2×) and 139 mmHg and 152 mmHg"}, {"measurement": "Systolic Blood Pressure (mmHg)", "setting": "Day 8", "result": "142 ± 3", "unit": "mmHg"}, {"measurement": "Systolic Blood Pressure", "setting": "Day 9, individual rats, 30-day protocol, listed as Eplerenone + aldosterone + salt", "result": "142 mmHg and 146 mmHg and 139 mmHg and 154 mmHg and 130 mmHg and 133 mmHg and 137 mmHg and 141 mmHg and 151 mmHg"}, {"measurement": "Systolic Blood Pressure (mmHg)", "setting": "Day 9", "result": "142 ± 3", "unit": "mmHg"}, {"measurement": "Systolic Blood Pressure", "setting": "Day 10, individual rats, 30-day protocol, listed as Eplerenone + aldosterone + salt", "result": "143 mmHg (2×) and 138 mmHg and 158 mmHg and 134 mmHg and 136 mmHg and 139 mmHg and 142 mmHg and 149 mmHg"}, {"measurement": "Systolic Blood Pressure (mmHg)", "setting": "Day 10", "result": "142 ± 2", "unit": "mmHg"}, {"measurement": "Systolic Blood Pressure", "setting": "Day 11, individual rats, 30-day protocol, listed as Eplerenone + aldosterone + salt", "result": "145 mmHg (2×) and 139 mmHg and 138 mmHg and 160 mmHg and 136 mmHg and 137 mmHg and 140 mmHg and 152 mmHg"}, {"measurement": "Systolic Blood Pressure (mmHg)", "setting": "Day 11", "result": "143 ± 3", "unit": "mmHg"}, {"measurement": "Systolic Blood Pressure", "setting": "Day 12, individual rats, 30-day protocol, listed as Eplerenone + aldosterone + salt", "result": "147 mmHg and 140 mmHg (2×) and 139 mmHg (2×) and 165 mmHg and 137 mmHg and 148 mmHg and 154 mmHg"}, {"measurement": "Systolic Blood Pressure (mmHg)", "setting": "Day 12", "result": "145 ± 3", "unit": "mmHg"}, {"measurement": "Systolic Blood Pressure", "setting": "Day 13, individual rats, 30-day protocol, listed as Eplerenone + aldosterone + salt", "result": "148 mmHg and 144 mmHg and 137 mmHg and 170 mmHg and 140 mmHg (3×) and 149 mmHg"}, {"measurement": "Systolic Blood Pressure (mmHg)", "setting": "Day 13", "result": "147 ± 3", "unit": "mmHg"}, {"measurement": "Systolic Blood Pressure (mmHg)", "setting": "Day 14", "result": "150 ± 4", "unit": "mmHg"}, {"measurement": "Systolic Blood Pressure (mmHg)", "setting": "Day 15", "result": "148 ± 4", "unit": "mmHg"}, {"measurement": "Systolic Blood Pressure (mmHg)", "setting": "Day 16", "result": "150 ± 4", "unit": "mmHg"}, {"measurement": "Systolic Blood Pressure (mmHg)", "setting": "Day 17", "result": "154 ± 5", "unit": "mmHg"}, {"measurement": "Systolic Blood Pressure (mmHg)", "setting": "Day 18", "result": "157 ± 5", "unit": "mmHg"}, {"measurement": "Systolic Blood Pressure (mmHg)", "setting": "Day 19", "result": "160 ± 5", "unit": "mmHg"}, {"measurement": "Systolic Blood Pressure (mmHg)", "setting": "Day 20", "result": "160 ± 5", "unit": "mmHg"}, {"measurement": "Systolic Blood Pressure (mmHg)", "setting": "Day 21", "result": "165 ± 6", "unit": "mmHg"}, {"measurement": "Systolic Blood Pressure (mmHg)", "setting": "Day 22", "result": "167 ± 6", "unit": "mmHg"}, {"measurement": "Systolic Blood Pressure (mmHg)", "setting": "Day 23", "result": "172 ± 6", "unit": "mmHg"}, {"measurement": "Systolic Blood Pressure (mmHg)", "setting": "Day 25", "result": "176 ± 6", "unit": "mmHg"}, {"measurement": "Systolic Blood Pressure (mmHg)", "setting": "Day 26", "result": "180 ± 7", "unit": "mmHg"}, {"measurement": "Systolic Blood Pressure", "setting": "aldosterone + salt, uninephrectomized rats, up to 30 days, eplerenone 100 mg/kg/day", "result": "significantly reduced at days 8-30"}]}]}
